Each structure is given as a SMILES string.

From US20070249710A1, “Biaromatic compounds and cosmetic/pharmaceutical applications thereof” (GALDERMA RESEARCH & DEVELOPMENT, priority 2004, published 2007) come the findings set out here.

One series has as its target T1, RARalpha (Homo sapiens, UniProt P10276).
T1 sequence (P10276 183-417 limits assumed): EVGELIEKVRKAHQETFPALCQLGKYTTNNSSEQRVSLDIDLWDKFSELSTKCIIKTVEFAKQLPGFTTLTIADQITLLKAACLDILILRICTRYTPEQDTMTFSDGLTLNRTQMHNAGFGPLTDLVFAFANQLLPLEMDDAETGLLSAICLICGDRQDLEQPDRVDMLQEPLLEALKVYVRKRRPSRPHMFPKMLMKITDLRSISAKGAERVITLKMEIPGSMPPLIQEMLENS
Description: Transactivation test, HeLa reporter cells (RARalpha). Format: cell-based. As to the method:
(§1) The activation of the receptors by an agonist (activator) in HeLa cells results in the expression of a reporter gene, luciferase, which, in the presence of a substrate, generates light. It is therefore possible to measure the activation of the receptors by quantifying the luminescence produced after incubation of the cells in the presence of a reference antagonist. The activator products displace the antagonist from its site, thus allowing activation of the receptor. The measurement of the activity is carried out by quantifying the increase in the light produced. This measurement makes it possible to determine the activating activity of the compound for use in the invention.
(§2) In this study, a constant which is the affinity of the molecule for the receptor is determined. Since this value can fluctuate depending on the basal activity and the expression of the receptor, it is designated apparent Kd (KdApp). […]
(§3) These cross curves make it possible to determine the AC50 values (concentration at which 50% activation is observed) for the reference ligand at various concentrations of product to be tested. These AC50 values are used to calculate the Schild regression by plotting a straight line corresponding to the Schild equation (“quantitation in receptor pharmacology”, Terry P. Kenakin, Receptors and Channels, 2001, 7, 371-385).
(§4) In the case of an agonist, the AC50 value (concentration that gives 50% of the activity) is calculated by plotting the curve of the product at the concentration of the reference ligand that gives 80% activation. The percentage activation which corresponds to the maximum level of activity obtained is also measured. […]
(§5) The culture medium is removed by turning the plates upside down and 100 μl of a 1:1 PBS (phosphate buffer solution)/luciferin mixture are added to each well. After 5 minutes, the plates are read with a luminescence reader.

Another series has as its target T2, RARbeta (Homo sapiens, UniProt P10826).
T2 sequence (P10826 183-417 limits assumed): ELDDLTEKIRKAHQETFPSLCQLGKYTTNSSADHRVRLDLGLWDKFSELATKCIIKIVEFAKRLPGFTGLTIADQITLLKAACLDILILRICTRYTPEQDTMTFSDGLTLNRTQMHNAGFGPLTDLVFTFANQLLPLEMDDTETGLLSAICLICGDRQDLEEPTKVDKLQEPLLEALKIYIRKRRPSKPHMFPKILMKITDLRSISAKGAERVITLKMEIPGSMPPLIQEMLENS
Description: Transactivation test, HeLa reporter cells (RARbeta). In kind it is cell-based. On the procedure:
as §1, §2, §3, §4, §5

Another series concerns the target T3, RARgamma (Homo sapiens, UniProt P13631).
T3 sequence (P13631 185-419 limits assumed): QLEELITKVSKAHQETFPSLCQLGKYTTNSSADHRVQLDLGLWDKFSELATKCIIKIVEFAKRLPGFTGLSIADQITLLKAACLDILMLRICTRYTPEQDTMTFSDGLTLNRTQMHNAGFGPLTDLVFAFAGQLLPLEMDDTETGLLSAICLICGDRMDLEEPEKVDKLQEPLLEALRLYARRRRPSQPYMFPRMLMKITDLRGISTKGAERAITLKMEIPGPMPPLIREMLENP
Description: Transactivation test, HeLa reporter cells (RARgamma). In kind it is cell-based. The settings on record: for specificity for RARgamma in comparison with RARalpha and RARbeta: transactivation test, in words. As to the method: as §1
In this study, a constant which is the affinity of the molecule for the receptor is determined. Since this value can fluctuate depending on the basal activity and the expression of the receptor, it is designated apparent Kd (KdApp).
To determine this constant, “cross curves” for the product to be tested (2-hydroxy-4-[2-hydroxyimino-2-(5,5,8,8-tetramethyl-5,6,7,8-tetrahydronaphthalen-2-yl)ethoxy]benzoic acid), against a reference antagonist, otherwise called reference ligand, 4-(5,5-dimethyl-8-p-tolyl-5,6-dihydronaphthalen-2-ylethynyl)benzoic acid, are produced. The product to be tested is used at 10 concentrations and the reference antagonist at 7 concentrations. In each well (of a 96-well plate), the cells are in contact with one concentration of the product to be tested and one concentration of the reference antagonist.
Measurements are also carried out for the total agonist control, otherwise called 100% control (4-[2-(5,5,8,8-tetramethyl-5,6,7,8-tetrahydronaphthalen-2-yl)propenyl]benzoic acid), and the inverse agonist control, otherwise called 0% control, 4-{(E)-3-[4-(4-tert-butylphenyl)-5,5,8,8-tetramethyl-5,6,7,8-tetrahydronaphthalen-2-yl]-3-oxopropenyl}benzoic acid.
as §3
In the case of an agonist, the AC50 value (concentration that gives 50% of the activity) is calculated by plotting the curve of the product at the concentration of the reference ligand that gives 80% activation. The percentage activation which corresponds to the maximum level of activity obtained is also measured.
The HeLa cell lines used are stable transfectants containing the plasmids ERE-βGlob-Luc-SV-Neo (reporter gene) and RAR (α, β, γ) ER-DBD-puro. These cells are seeded into 96-well plates at a rate of 10,000 cells per well in 100 μl of DMEM medium without phenol red, supplemented with 10% of delipidized calf serum. The plates are then incubated at 37° C., 7% CO2 for 4 hours. […]
as §5

Setting [1] is: concentration that gives 50% of the activity, HeLa luciferase reporter.

A word on the melting point: it is the temperature, or range, at which the solid turns liquid. Regarding `CCOC(=O)c1ccc(OCC(=NO)c2ccc3c(c2)C(C)(C)CCC3(C)C)cc1O` [Example 1, ethyl 2-hydroxy-4-[2-hydroxyimino-2-(5,5,8,8-tetramethyl-5,6,7,8-tetrahydronaphthalen-2-yl)ethoxy]benzoate], the melting point worked out at 130 °C.
For orientation: AC50 means the concentration at which the activity in the assay is half-maximal. Low readings indicate activity at low concentration, high ones activity only at high concentration. For the compound `CC1(C)CCC(C)(C)c2cc(C(COc3ccc(C(=O)O)c(O)c3)=NO)ccc21` [Acid compound of the invention, 2-hydroxy-4-[2-hydroxyimino-2-(5,5,8,8-tetramethyl-5,6,7,8-tetrahydronaphthalen-2-yl)ethoxy]benzoic acid], the Kd turned out to be 4060 nM on RARalpha (apparent Kd, Schild regression against reference antagonist, HeLa luciferase reporter, read-out: RARalpha Kdapp); 1030 nM on RARbeta (apparent Kd, Schild regression against reference antagonist, HeLa luciferase reporter, read-out: RARbeta Kdapp); 8 nM on RARgamma (apparent Kd, Schild regression against reference antagonist, HeLa luciferase reporter, read-out: RARgamma Kdapp). For the same compound, on RARalpha (at 10 μM, maximum level of activity), the RARalpha % activation was 100%. The AC50 at RARalpha (setting [1]) came to 1700 nM; at RARbeta (setting [1]) it was 600 nM; at RARgamma (setting [1]) it was 9 nM. The “RARbeta % Activation” value on RARbeta (at 5 μM, maximum level of activity) was 100%. This compound also returned an RARgamma % activation on RARgamma (at 0.04 μM, maximum level of activity) of 100%. Also, the “specificity for RARgamma in comparison with RARalpha and RARbeta” value on RARgamma (listed as 2-Hydroxy-4-[2-hydroxyimino-2-(5,5,8,8-tetramethyl-5,6,7,8-tetrahydronaphthalen-) is reported as “selective agonist or activator of the RARgamma receptor”; on RARgamma (listed as 2-hydroxy-4-[2-hydroxyimino-2-(5,5,8,8-tetramethyl-5,6,7,8-tetrahydronaphthalen-) it was “great specificity for the receptor subtype RARgamma”.
In turn, `CC(C)COC(=O)c1ccc(OCC(=NO)c2ccc3c(c2)C(C)(C)CCC3(C)C)cc1O` [Example 3, isobutyl 2-hydroxy-4-[2-hydroxyimino-2-(5,5,8,8-tetramethyl-5,6,7,8-tetrahydronaphthalen-2-yl)ethoxy]benzoate] came in with a melting point of 96 °C.
On the same count and under the same terms, the same measure for `CC(C)OC(=O)c1ccc(OCC(=NO)c2ccc3c(c2)C(C)(C)CCC3(C)C)cc1O` [Example 2, isopropyl 2-hydroxy-4-[2-hydroxyimino-2-(5,5,8,8-tetramethyl-5,6,7,8-tetrahydronaphthalen-2-yl)ethoxy]benzoate]: 130 °C.
